Data on 22 compounds can be found in patent US20220144839A1, “INDOLE AHR INHIBITORS AND USES THEREOF” (Ikena Oncology, Inc., priority 2018, published 2022).

The assay has as its target T1, AHR (UniProt P35869).
T1 sequence (P35869 1-848): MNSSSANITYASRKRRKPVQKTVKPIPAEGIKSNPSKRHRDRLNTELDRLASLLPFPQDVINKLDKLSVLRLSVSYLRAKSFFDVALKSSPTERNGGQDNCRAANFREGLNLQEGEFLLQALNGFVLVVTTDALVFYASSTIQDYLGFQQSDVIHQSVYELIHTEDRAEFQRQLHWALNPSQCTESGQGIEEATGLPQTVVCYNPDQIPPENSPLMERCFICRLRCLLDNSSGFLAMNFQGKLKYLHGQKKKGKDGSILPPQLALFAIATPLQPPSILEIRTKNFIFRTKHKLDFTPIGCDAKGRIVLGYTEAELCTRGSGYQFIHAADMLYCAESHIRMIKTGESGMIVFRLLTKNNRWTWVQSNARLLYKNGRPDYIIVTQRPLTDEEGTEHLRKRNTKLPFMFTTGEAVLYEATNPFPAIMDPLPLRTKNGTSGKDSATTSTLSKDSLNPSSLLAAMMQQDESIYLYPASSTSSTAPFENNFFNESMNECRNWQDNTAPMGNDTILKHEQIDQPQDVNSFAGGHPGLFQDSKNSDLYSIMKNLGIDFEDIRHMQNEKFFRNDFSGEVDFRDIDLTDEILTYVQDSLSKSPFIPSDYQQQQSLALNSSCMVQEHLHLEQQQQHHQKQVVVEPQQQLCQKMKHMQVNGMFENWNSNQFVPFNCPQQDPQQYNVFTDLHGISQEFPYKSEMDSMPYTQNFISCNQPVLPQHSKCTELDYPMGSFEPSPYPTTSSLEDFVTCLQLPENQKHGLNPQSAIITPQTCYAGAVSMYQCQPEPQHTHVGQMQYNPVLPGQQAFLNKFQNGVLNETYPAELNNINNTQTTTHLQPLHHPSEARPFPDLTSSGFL
Put plainly: DRE-Luciferase Reporter Assay (Alternate Method), Example 1B. It counts as cell-based. To be noted: concentration which inhibits half of the luciferase activity induced by AHR activating ligand; DRE-luciferase reporter cell line. Here is the method: AHR binds to Dioxin Responsive Elements (DRE) upstream of genes that it activates. One measure of AHR activity is activation of a reporter gene, such as luciferase, downstream of one or multiple DRE elements. Luciferase activity will reflect activation and inhibition of AHR in the cells expressing his reporter.
Murine Hepa1-6 or Hepa-1c1c7 or other murine cell line with a DRE-luciferase reporter either stably or transiently transfected were plated in media in plates (96-well, 384-well or other plates) and incubated overnight at 37° C. in a C02 incubator or compound and agonist were added at the time of plating. Likewise, human HepG2 or other human cell line with a DRE-luciferase reporter either stably or transiently transfected were plated in media in plates (96-well, 384-well or other plates) and incubated overnight at 37° C. in a C02 incubator or compound and agonist were added at the time of plating.
At the time that cells are plated or following incubation overnight, an AHR activating ligand, such as TCDD, kynurenine, ITE (2-(1H-indole-3-ylcarbonyl)-4-thiazolecarboxylic methyl ester), VAF347, BNF (beta-naphthoflavone), FICZ (6-formylindolo(3,2-b) carbazole or other AHR ligands, was added with or without AHR antagonist.
Cells were incubated for 4, 15 or 24 hours or another time point and then lysed for determination of luciferase activity as a read-out of the AHR activation or inhibition. Luciferase was measured with a commercial kit such as the Promega Luciferase kit or any kit or reagents that provide the luciferin substrate for measuring luciferase activity. The level of luciferase with only activating ligand added was the maximum signal while the luciferase with no ligand was the minimum signal. IC50 values were determined as the concentration which inhibits half of the luciferase activity.
As to `Fc1cncc(-c2nc(N[C@@H]3CCc4[nH]c5ccccc5c4C3)n3nc4c(c3n2)CNCC4)c1` [Compound I-50, 2-(5-Fluoro-3-pyridyl)-N-[(3R)-2,3,4,9-tetrahydro-1H-carbazol-3-yl]-7,8,9,10-tetrahydropyrido[2,3]pyrazolo[2,4-c][1,3,5]triazin-4-amine], the half-maximal inhibitory concentration (IC50) was over 1.5 µM. The value for `CC(C)c1cnn2c(NCCNc3ccccn3)nc(-c3cncc(F)c3)nc12` [Compound I-45, N′-[2-(5-Fluoro-3-pyridyl)-8-isopropyl-pyrazolo[1,5-a][1,3,5]triazin-4-yl]-N-(2-pyridyl)ethane-1,2-diamine] was 1 to 1.5 µM; that for `Fc1cncc(-c2nc(N[C@@H]3CCc4[nH]c5ccccc5c4C3)n3ncc(C4CCOC4)c3n2)c1` (stereo partly drawn) [Compound I-18, (3R)—N-[2-(5-fluoro-3-pyridyl)-8-tetrahydrofuran-3-yl-pyrazolo[1,5-a][1,3,5]triazin-4-yl]-2,3,4,9-tetrahydro-1H-carbazol-3-amine] was under 0.5 µM; that for `CC(C)c1cnn2c(NCCCO)nc(-c3cncc(F)c3)nc12` [Compound I-43, 3-[[2-(5-Fluoro-3-pyridyl)-8-isopropyl-pyrazolo[1,5-a][1,3,5]triazin-4-yl]amino]propan-1-ol] was over 1.5 µM. The value for `Fc1cncc(-c2nc(N[C@@H]3CCc4[nH]c5ccccc5c4C3)n3nc4c(c3n2)COCC4)c1` [Compound I-33, 2-(5-fluoro-3-pyridyl)-N-[(3R)-2,3,4,9-tetrahydro-1H-carbazol-3-yl]-8,10-dihydro-7H-pyrano[2,3]pyrazolo[2,4-c][1,3,5]triazin-4-amine] was under 0.5 µM; that for `C[C@@H](NC(=O)N1CCOCC1)c1cnn2c(N[C@@H]3CCc4[nH]c5ccccc5c4C3)nc(-c3cncc(F)c3)nc12` [Compound I-56b, N-[(1R)-1-[2-(5-Fluoro-3-pyridyl)-4-[[(3R)-2,3,4,9-tetrahydro-1H-carbazol-3-yl]amino]pyrazolo[1,5-a][1,3,5]triazin-8-yl]ethyl]morpholine-4-carboxamide] was under 0.5 µM; that for `C[C@@H](N)c1cnn2c(N[C@@H]3CCc4[nH]c5ccccc5c4C3)nc(-c3cncc(F)c3)nc12` [Compound I-32b, (3R)—N-[8-[(1R)-1-aminoethyl]-2-(5-fluoro-3-pyridyl)pyrazolo[1,5-a][1,3,5]triazin-4-yl]-2,3,4,9-tetrahydro-1H-carbazol-3-amine] was under 0.5 µM.

Take `CC(C)c1cnn2c(N[C@@H]3CNc4ccccc4C3)nc(-c3cncc(F)c3)nc12` [Compound I-35a, (3S)—N-[2-(5-Fluoro-3-pyridyl)-8-isopropyl-pyrazolo[1,5-a][1,3,5]triazin-4-yl]-1,2,3,4-tetrahydroquinolin-3-amine]: the IC50 lay within 1 to 1.5 µM. The value for `CC(C)c1cnn2c(N[C@@H]3CCc4[nH]c5ccccc5c4C3)nc(-c3cncc(N(C)C)c3)nc12` [Compound I-5, (3R)—N-[2-[5-(Dimethylamino)-3-pyridyl]-8-isopropyl-pyrazolo[1,5-a][1,3,5]triazin-4-yl]-2,3,4,9-tetrahydro-1H-carbazol-3-amine] was over 1.5 µM; that for `COC[C@H](C)c1cnn2c(N[C@@H]3CCc4[nH]c5ccccc5c4C3)nc(-c3cncc(F)c3)nc12` [Compound I-64a, (3R)—N-[2-(5-Fluoro-3-pyridyl)-8-[(1R)-2-methoxy-1-methyl-ethyl]pyrazolo[1,5-a][1,3,5]triazin-4-yl]-2,3,4,9-tetrahydro-1H-carbazol-3-amine] was under 0.5 µM. Next, `CC(C)c1cnn2c(N[C@H]3CNc4ccccc4C3)nc(-c3cncc(F)c3)nc12` [Compound I-35b, (R)—N-(2-(5-Fluoropyridin-3-yl)-8-isopropylpyrazolo[1,5-a][1,3,5]triazin-4-yl)-1,2,3,4-tetrahydroquinolin-3-amine]: 0.5 to 1 µM; `NCc1cnn2c(N[C@@H]3CCc4[nH]c5ccccc5c4C3)nc(-c3cncc(F)c3)nc12` [Compound I-4, (3R)—N-[8-(Aminomethyl)-2-(5-fluoro-3-pyridyl)pyrazolo[1,5-a][1,3,5]triazin-4-yl]-2,3,4,9-tetrahydro-1H-carbazol-3-amine]: under 0.5 µM; `CC(C)c1cnn2c(N[C@H]3CCc4c(cc[nH]c4=O)C3)nc(-c3cncc(F)c3)nc12` [Compound I-66b, (6S)-6-[[2-(5-fluoro-3-pyridyl)-8-isopropyl-pyrazolo[1,5-a][1,3,5]triazin-4-yl]amino]-5,6,7,8-tetrahydro-2H-isoquinolin-1-one]: over 1.5 µM. The compound `CC(C)c1cnn2c(N[C@H]3CCc4[nH]c5cccc(O)c5c4C3)nc(-c3cncc(F)c3)nc12` [Compound I-29a, (6S)-6-[[2-(5-Fluoro-3-pyridyl)-8-isopropyl-pyrazolo[1,5-a][1,3,5]triazin-4-yl]amino]-6,7,8,9-tetrahydro-5H-carbazol-4-ol] yielded an IC50 of over 1.5 µM. Next, `COC[C@@H](C)c1cnn2c(N[C@@H]3CCc4[nH]c5ccccc5c4C3)nc(-c3cncc(F)c3)nc12` [Compound I-64b, (3R)—N-[2-(5-fluoro-3-pyridyl)-8-[(1S)-2-methoxy-1-methyl-ethyl]pyrazolo[1,5-a][1,3,5]triazin-4-yl]-2,3,4,9-tetrahydro-1H-carbazol-3-amine]: under 0.5 µM; `C[C@@H](CO)c1cnn2c(N[C@@H]3CCc4[nH]c5ccccc5c4C3)nc(-c3cncc(F)c3)nc12` [Compound I-25a, (2R)-2-[2-(5-Fluoro-3-pyridyl)-4-[[(3R)-2,3,4,9-tetrahydro-1H-carbazol-3-yl]amino]pyrazolo[1,5-a][1,3,5]triazin-8-yl]propan-1-ol]: under 0.5 µM. The value for `Fc1cc(-c2nc(N[C@@H]3CCc4[nH]c5ccccc5c4C3)n3nccc3n2)cnc1[C@H]1CCCN1` [Compound I-26b, (3R)—N-[2-[5-Fluoro-6-[(2R)-pyrrolidin-2-yl]-3-pyridyl]pyrazolo[1,5-a][1,3,5]triazin-4-yl]-2,3,4,9-tetrahydro-1H-carbazol-3-amine] was over 1.5 µM; that for `COc1ccnc2c(N[C@@H]3CCc4[nH]c5ccccc5c4C3)nc(-c3cncc(F)c3)nc12` [Compound I-23, (3R)—N-[2-(5-fluoro-3-pyridyl)-8-methoxy-pyrido[3,2-d]pyrimidin-4-yl]-2,3,4,9-tetrahydro-1H-carbazol-3-amine] was under 0.5 µM; that for `Cc1nccn1-c1nc(N[C@@H]2CCc3[nH]c4ccccc4c3C2)n2ncc(C(C)C)c2n1` [Compound I-19, (3R)—N-[8-Isopropyl-2-(2-methylimidazol-1-yl)pyrazolo[1,5-a][1,3,5]triazin-4-yl]-2,3,4,9-tetrahydro-1H-carbazol-3-amine] was over 1.5 µM. Next, `CC(C)c1cnn2c(N[C@@H]3Cc4[nH]cnc4NC3=O)nc(-c3cncc(F)c3)nc12` [Compound I-62b, (6R)-6-[[2-(5-fluoro-3-pyridyl)-8-isopropyl-pyrazolo[1,5-a][1,3,5]triazin-4-yl]amino]-1,4,6,7-tetrahydroimidazo [4,5-b]pyridin-5-one]: over 1.5 µM; `CC(C)c1cnn2c(N[C@H]3CNc4ncccc4C3)nc(-c3cncc(F)c3)nc12` [Compound I-37b, (3R)—N-[2-(5-Fluoro-3-pyridyl)-8-isopropyl-pyrazolo[1,5-a][1,3,5]triazin-4-yl]-1,2,3,4-tetrahydro-1,8-naphthyridin-3-amine]: under 0.5 µM. `C[C@@H](NC(=O)N1CCN(C)CC1)c1cnn2c(N[C@@H]3CCc4[nH]c5ccccc5c4C3)nc(-c3cncc(F)c3)nc12` [Compound I-61b, N-[(1R)-1-[2-(5-Fluoro-3-pyridyl)-4-[[(3R)-2,3,4,9-tetrahydro-1H-carbazol-3-yl]amino]pyrazolo[1,5-a][1,3,5]triazin-8-yl]ethyl]-4-methyl-piperazine-1-carboxamide]: the half-maximal inhibitory concentration (IC50) fell in the range of 0.5 to 1 µM.

As usually defined, the IC50 is the concentration that inhibits the measured activity by half. A lower IC50 goes with greater potency.
